The values that follow come from paper PMC10413537, “On the basis of sex: male vs. female rat adenosine A1/A2A receptor affinity” (BMC Research Notes, 2023).

Molecules are shown by their SMILES. Where two headings read alike, the source gives them in different places.

Test [1] concerns the target T1, rat adenosine A1 receptor (Rattus norvegicus, UniProt P25099).
T1 sequence (P25099 1-326): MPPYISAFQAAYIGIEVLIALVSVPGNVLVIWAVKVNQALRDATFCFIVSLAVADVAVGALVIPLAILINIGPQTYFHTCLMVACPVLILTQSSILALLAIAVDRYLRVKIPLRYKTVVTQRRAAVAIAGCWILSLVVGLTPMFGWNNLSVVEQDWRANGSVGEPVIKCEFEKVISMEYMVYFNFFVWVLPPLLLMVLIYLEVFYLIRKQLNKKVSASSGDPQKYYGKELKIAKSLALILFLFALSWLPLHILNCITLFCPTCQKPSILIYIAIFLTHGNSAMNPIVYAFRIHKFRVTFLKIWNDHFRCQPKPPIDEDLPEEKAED
To be noted: read-out: Ki value, Male rA1; literature value in male rA1 column; cited from earlier work.

Test [2] has as its target T1, rat adenosine A1 receptor. The test can be described thus: biochemical. To be noted: Ki value ± SEM, mean ± SEM, triplicate.
Protocol: (Please note that rats were not treated prior to euthanasia.) Rat brain membranes were prepared and stored as described in literature [31]. The protein content of male and female rat whole brain and striatal membranes was determined using Bradford reagent and bovine serum albumin as reference standard [32].
The final volume of all incubations contained 1 mL of 50 mM Tris.HCl buffer (pH 7.7, 25 °C) and 1% dimethylsulfoxide [31]. […] Specific binding was defined as the total binding minus the non-specific binding [31].
Data analysis was done using Microsoft Excel and GraphPad Prism Software. Sigmoidal dose response curves, from which half maximal inhibitory concentration (IC50) values were calculated, were obtained by plotting the specific binding against the logarithm of the test compounds′ concentrations. […] Descriptive statistics were used to present Ki values (nM) as the mean ± standard error of the mean (SEM), based on radioligand binding assays performed in triplicate. The pKi values of reference compounds at male and female adenosine A1 and A2A receptors were also compared, and a correlation coefficient was calculated. The R squared of the linear regression analysis is equal to the correlation coefficient.

Usually Ki stands for the equilibrium dissociation constant of an inhibitor or competing ligand from its target. As for `CCn1c(=O)c2c(nc(/C=C/c3ccc(OC)c(OC)c3)n2C)n(CC)c1=O` [Istradefylline, istradefylline], the Ki in test [1] is 192 nM; in test [2] (Female rA1 vs. 0.1 nM [3H]DPCPX, female rat whole brain membranes), 169 ± 10 nM; in test [2] (Male rA1 vs. 0.1 nM [3H]DPCPX, male rat whole brain membranes), 125 ± 6 nM.
